Reference: patent publication US7316816B2, “Temperature and pH sensitive copolymers” (Agency for Science Technology and Research, priority 2004, dated 2008)

What was measured:
[1] = In vitro drug release by dialysis; type: physicochemical; settings: pH 7.4 and 6.0
Description: DOX release from the nanoparticles was studied at pH 6.0, 6.6 and 7.4. A certain amount of DOX-loaded freeze-dried nanoparticles was dispersed in 200 μL of the respective buffer solution and allowed to stabilize for 30 minutes before being placed in a dialysis membrane with a molecular weight cut-off of 2000 (Spectra/Por). The dialysis bag was then immersed in 25 mL of PBS with pH 6.0, 6.6 or 7.4 at 37° C. The samples were drawn at specific time intervals and the drug concentration was analyzed using the UV-VIS spectrophotometer as stated in paragraph A(vi) of the present example.

[2] = cited from earlier work

SMILES	effect of pH on release of free DOX from the dialysis bag [1]	pKa [2]
COc1cccc2c1C(=O)c1c(O)c3c(c(O)c1C2=O)C[C@@](O)(C(=O)CO)C[C@@H]3O[C@H]1C[C@H](N)[C@H](O)[C@H](C)O1 [DOX, doxorubicin]	no significant effect of pH	
Nc1nc2ncc(CNc3ccc(C(=O)N[C@@H](CCC(=O)O)C(=O)O)cc3)nc2c(=O)[nH]1 [Folic acid]		~5.4
